Earlier results in patent publication US20240225064A1, “METHOD FOR MASS-PRODUCING SWEETENER HAVING TASTE QUALITY SIMILAR TO THAT OF SUGAR AND HAVING D-ALLULOSE FUNCTIONALITY” (NATIONAL UNIVERSITY CORPORATION KAGAWA UNIVERSITY, priority 2021, published 2024).
Like-named read-outs stand apart in the source and are kept apart here.

What was measured:
[1] = not given; remark: listed apart in the source
[2] = content in sweetener

Compound: O=C(CO)[C@H](O)[C@H](O)[C@H](O)CO [D-allulose]
- sweetness degree (sweetness intensity) (assuming that the sweetness degree of sugar is 100): 70
- sweetness degree relative to sugar (of that of sugar): about 70%
- acute oral toxicity test [1]: ≥ 5,000 mg/kg
- D-allulose content at which the function of suppressing rapid absorption of a saccharide appears [2]: ≥ 5 mass %

Compound: O=C(CO)[C@@H](O)[C@H](O)[C@H](O)CO [D-fructose]
- sweetness of D-fructose relative to sucrose (at 40° C.): equal thereto
- sweetness of D-fructose relative to sucrose (at high temperatures): 60%
